# Assays:
# PERK = biological target: T1, PERK (Homo sapiens, UniProt Q9NZJ5); test: cell-free FRET-based biochemical assay, PERK; settings: role: inhibitor; ratio of IC50 values
# T1 construct: purchased Carna
# Protocol: The potency of HC-5404 against four ISR kinases was evaluated in cell-free FRET-based biochemical assays, following manufacturer's instructions (Carna).
# Cell-free biochemical assays were used to evaluate the selectivity of HC-5404 for PERK, relative to the ISR kinases GCN2, HRI, and PKR. In these assays, recombinant target kinases were incubated with […] and an eIF2α-based fluorogenic substrate, and kinase activity was evaluated in presence of HC-5404 across a concentration series.
# 786-O RCC xenograft = 786-O RCC xenograft tumor growth; assay type: in vivo, mouse
# Protocol: (§1) Xenograft RCC models were generated as follows: Female NOD.SCID mice (6-8 weeks of age) were injected with A498 RCC cells (5×10^6 cells/mouse), female Balb/c Nude mice (6-8 weeks old) were implanted with 786-O RCC cells (5×10^6 cells/mouse) or Caki-1 RCC cells (6×10^6 cells/mouse), female Athymic Nude-Foxn1nu mice (7-8 weeks of age) were implanted with MFE280 endometrial cells (10×10^6 cells/mouse). Cells were implanted into the flank of animals.
# (§2) Once tumor tumors reached volume of typically 150-250 mm^3, animals were randomized by tumor volume into the treatment groups of 8 or 10 animals per group. In the single animal trial with RCC PDX models, only one animal per group was enrolled.
# Body weight and tumor volume were measured twice weekly. Tumor volume was calculated using the formula [tumor volume (mm^3)=π/6×length×width^2] and plotted as means+SEM. The percentage of tumor growth inhibition was calculated at the end of the study using the formula: […], if ΔT>0, ΔT, mean tumor volume of the drug-treated group on the observation day of the study—mean tumor volume of the drug-treated group on initial day of dosing; ΔC, mean tumor volume of the control group on the observation day of the study—mean tumor volume of the control group on initial day of dosing. Regression was calculated using the formula=100×ΔT/Tinitial, if ΔT<0. Animals with >50% regressions were partial responders. Animals with tumor volume of 0 (no measurable tumor) were considered as complete responders, and animals with <50% tumor regression and 30% growth over the baseline were considered as stable disease. Animals with tumors>30% increase over the baseline were considered progressive disease. The % change in body weight was calculated by the formula (body weight on observation day−body weight on initial day)/body weight on initial day×100%.
# [1] = tested on: human cord blood-derived MDSCs / CD3 T cells; test: human T cell suppression assay with human cord blood-derived MDSCs; assay type: cell-based; settings: 500 or 750 nM (FIG. 10A, 10C)
# Protocol: Human MDSC Preparation: Fresh cord blood was obtained from NDRI (Protocol ID #RCHA4 01). Mononuclear cells were enriched from cord blood by Lymphoprep density gradient centrifugation, followed by CD34+ cell isolation using EasySep Human Cord Blood CD34 Positive selection Kit II, and the enriched CD34+ cells were cultured in a 48-well plate (BD Falcon, Bedford, MA) at 1×10^5 cells/well/ml of IMDM complete medium (IMDM supplemented with 10% FBS, 1× penicillin-streptomycin and 2 mM L-glutamax). 100 ng/ml human GM-CSF, 100 ng/ml human G-CSF and 50 ng/ml human SCF were added to the IMDM complete medium and cells were expanded for 13-14 days in a 37 °C, 5% CO2 humidified incubator and medium was refreshed on day 7. MDSC differentiation was induced by culturing the expanded CD34+ cells in a 24 well plate at 0.1-0.15×10^6 cells/well in 2 ml of IMDM complete medium supplemented with 100 ng/ml human GM-CSF, 50 ng/mL G-CSF and 30 ng/ml IL-6 for additional 6-7 days with medium changed on day 3. […]
# Human T cell Suppression Assay. […] T cell proliferation was analyzed by flow cytometry. […] The labeled cells were analyzed on a BD Fortessa cytometer and data was analyzed by FlowJo. […] Data were analyzed using one-way ANOVA with multiple comparison corrected with Dunnett test. *P<0.05; **P<0.01; ***P<0.005, ****P<0.0001 (FIGS. 10A, 10B, and 10C).
# [2] = tested on: MFE280 endometrial cancer model; test: MFE280 endometrial xenograft tumor growth; assay type: in vivo, mouse; settings: single agent: HC-5404 30 mg/kg PO BID or lenvatinib 10 mg/kg QD (FIG. 77)
# Protocol: as §1, §2
# Body weight and tumor volume were measured twice weekly. Tumor volume was calculated using the formula [tumor volume (mm^3)=π/6×length×width^2] and plotted as means+SEM. The percentage of tumor growth inhibition was calculated at the end of the study using the formula: 100−[1−(ΔT/ΔC)], if ΔT>0, ΔT, mean tumor volume of the drug-treated group on the observation day of the study—mean tumor volume of the drug-treated group on initial day of dosing; ΔC, mean tumor volume of the control group on the observation day of the study—mean tumor volume of the control group on initial day of dosing. Regression was calculated using the formula=100×ΔT/Tinitial, if ΔT<0. […]
# RXF-2304 = test: RCC PDX single animal trial, RXF-2304; assay type: in vivo, mouse; settings: HC-5404 30 mg/kg PO BID, n=1
# From the text: This example investigated the effect of HC-5404 in combination with VEGFR-TKIs in inhibiting tumor growth using 12 RCC PDX tumor models, following procedures analogous to those described above.
# Single animal per group (n=1) trial of animals harboring diverse RCC PDX models were used in this study.
# T1 sequence (Q9NZJ5 30-1116): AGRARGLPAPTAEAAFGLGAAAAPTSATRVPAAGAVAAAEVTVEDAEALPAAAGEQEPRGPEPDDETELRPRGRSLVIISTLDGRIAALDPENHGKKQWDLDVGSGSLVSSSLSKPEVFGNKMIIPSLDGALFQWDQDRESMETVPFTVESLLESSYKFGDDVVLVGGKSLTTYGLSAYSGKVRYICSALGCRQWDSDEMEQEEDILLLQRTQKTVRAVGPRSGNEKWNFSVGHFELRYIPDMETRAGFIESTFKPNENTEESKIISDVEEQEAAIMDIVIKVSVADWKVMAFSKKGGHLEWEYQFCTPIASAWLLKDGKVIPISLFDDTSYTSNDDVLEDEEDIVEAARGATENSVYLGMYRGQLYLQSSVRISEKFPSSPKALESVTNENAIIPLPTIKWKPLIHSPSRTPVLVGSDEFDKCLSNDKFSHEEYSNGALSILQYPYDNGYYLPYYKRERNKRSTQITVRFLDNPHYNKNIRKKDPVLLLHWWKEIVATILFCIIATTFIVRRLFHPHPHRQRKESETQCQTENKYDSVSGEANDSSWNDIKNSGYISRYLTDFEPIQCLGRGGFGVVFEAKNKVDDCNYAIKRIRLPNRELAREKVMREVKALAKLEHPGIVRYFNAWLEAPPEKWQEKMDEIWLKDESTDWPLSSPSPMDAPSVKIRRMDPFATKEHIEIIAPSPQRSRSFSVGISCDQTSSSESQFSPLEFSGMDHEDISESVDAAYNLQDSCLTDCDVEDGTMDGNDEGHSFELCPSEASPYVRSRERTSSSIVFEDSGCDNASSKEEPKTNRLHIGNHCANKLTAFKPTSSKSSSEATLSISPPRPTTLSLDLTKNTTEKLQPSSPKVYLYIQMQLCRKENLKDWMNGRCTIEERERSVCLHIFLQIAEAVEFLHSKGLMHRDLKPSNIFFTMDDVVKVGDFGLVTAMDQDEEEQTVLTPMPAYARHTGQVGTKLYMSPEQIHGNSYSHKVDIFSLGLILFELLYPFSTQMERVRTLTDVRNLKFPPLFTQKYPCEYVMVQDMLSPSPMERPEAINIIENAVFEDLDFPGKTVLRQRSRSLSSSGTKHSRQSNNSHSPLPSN
compound,measurement,setting,value
"Cc1cc(NC(=O)[C@H](O)c2cc(F)cc(F)c2)ccc1-c1cnc(N)c(C(=O)NC(C)C)c1 [HC-5404, (R)-2-amino-5-(4-(2-(3,5-difluorophenyl)-2-hydroxyacetamido)-2-methylphenyl)-N-isopropylnicotinamide]","biochemical selectivity for PERK over GCN2, HRI and PKR",PERK,> 2000 fold
same,tumor growth inhibition,"786-O RCC xenograft; 30 mg/kg PO BID, 28 days (FIG. 22)",48%
same,difference between BID and QD dosing,"786-O RCC xenograft; 3, 10, 30 mg/kg BID vs 6, 20, 60 mg/kg QD, PO",not statistically significant
same,TGI,"786-O RCC xenograft; 10 and 30 mg/kg PO BID tested, 28 days (FIG. 36)",approximately 52%
same,TGI %,"786-O RCC xenograft; HC-5404 30 mg/kg PO BID, cabozantinib combination study (FIG. 52)",~ 61%
same,dose dependence of antitumor efficacy,"786-O RCC xenograft; HC-5404 3, 10 and 30 mg/kg PO BID",trend for dose-dependent antitumor efficacy
same,effect on tumor volume,"786-O RCC xenograft; single agent, efficacy arms (FIG. 28)",modest effects on tumor volume
same,inhibition of T-cells by MDSCs,[1],reduced inhibition of T-cells
same,TGI %,[2],~ 37%
same,antitumor efficacy as monotherapy,RXF-2304,exhibited antitumor efficacy

# Source: US20260373132A1, “PERK INHIBITORHC-5404 IN COMBINATION WITH ANTI-PD-1 ANTIBODY AND/OR AN ANTIANGIOGENETIC AGENT FOR USE IN THE TREATMENT OF CANCER” (HIBERCELL, INC., priority 2022, published 2026)
